From patent EP1347751B1, “METHODS OF TREATING BONE CANCER AND THE PAIN ASSOCIATED THEREWITH USING ENDOTHELIN ANTAGONISTS” (ABBOTT LABORATORIES, priority 2000, dated 2002)

Key:
[1] = Bone scan (Tc-99m phosphonate, bone scan index) in treated subjects; format: in vivo, human; settings: men with hormone refractory prostate cancer; bone scans; 10 mg versus placebo; Figure 6
Procedure: (§1) Studies were performed on male subjects with asymptomatic hormone refractory prostate cancer with rising PSA levels and on male subjects with symptomatic hormone refractory prostate cancer with rising PSA levels and pain. Subjects in the phase II studies had castrate levels of testosterone, either due to pharmacologic intervention, via leuprolide (Lupron®) or goserelin (Zoladex®), or via surgical castration. Subjects received ABT-627 or placebo. The following tests were conducted: • ABT-627 was formulated in 2.5 and 10 mg doses. An oral liquid formulation of ABT-627 was also prepared as follows: 1 mg/ml ABT-627, 50% glycerin, 14% alcohol, and water. Matching placebos were also provided.
Bone scans were performed with an NDA approved, Tc-99m phosphonate type radiopharmaceutical. This technique uses whole body format (skull to feet) so that anterior and posterior images are presented when using a 510 K-approved gamma camera. […] Each site was evaluated against a confidence score of 1 to 5, where 1 is negative, 2 is probably negative, 3 is equivocal, 4 is probably positive, and 5 is definitely positive. […] In addition, in a blinded study, a reference nuclear medicine physician interpreted the bone scans quantitatively as follows: the percent of involved bone was estimated for each individual bone, and the individual bone involvement was summed to calculate a global percent bone scan index (BSI). […]

Interleukin-6 = Interleukin-6 levels in serum of treated subjects (sandwich immunoassay); format: in vivo, human; settings: men with hormone refractory prostate cancer, 2.5 mg or 10 mg vs placebo, AUC, Figure 1
Procedure: as §1
(§2) A number of recognized or putative biochemical markers of disease progression have been used to monitor treatment of individuals with prostate cancer. […]
The effect of ABT-627 adminstration on Interleukin-6 levels in human serum samples was determined at Quintiles Laboratories using a sandwich immunoassay. […] After incubation, the wells were washed, and the bound enzymatic activity was measured using a chromogenic substrate. […]

[2] = test system: prostate specific antigen (PSA); assay: Prostate Specific Antigen level assay (Chiron ACS: Centaur PSA2 sandwich immunoassay) in serum of treated subjects; format: in vivo, human; settings: men with hormone refractory prostate cancer; oral 2.5 mg or 10 mg vs placebo; AUC, Figure 2
Procedure: as §1, §2
The effect of ABT-627 administration on prostate specific antigen (PSA) levels in human subject serum samples was determined using the procedure described in the Chiron Diagnostics ACS: Centaur PSA2 Assay. […]
Briefly, a subject population was treated with a placebo or 2.5 mg or 10 mg of ABT-627. […] A direct relationship exists between the amount of PSA present in the patient sample and the RLU's (relative light units) detected.

Chromagranin-A = Chromagranin-A levels in serum of treated subjects (two site chemiluminescence assay, ICMA); format: in vivo, human; settings: men with hormone refractory prostate cancer, 2.5 mg/day, AUC, Figure 8
Procedure: as §1, §2
The effect of ABT-627 adminstration on Chromagranin-A levels in human serum samples was determined by proprietary assay conducted at the Nichols Institute. […] The bound, acridinium-labeled material produces light that is detected in a luminometer after addition of triggering agents. […]

Acid Phosphatase (ACP) = assay: Acid Phosphatase levels in serum of treated subjects (Sigma Diagnostics ACP Procedure No. 435); format: in vivo, human; settings: men with hormone refractory prostate cancer, treated vs placebo, AUC, Figure 7
Procedure: as §1, with “provided. […]” for “provided.”
The effect of ABT-627 administration on Acid Phosphatase levels in human subject serum samples was determined at Quintiles Laboratories using the chemical test described in Sigma Diagnostics Acid Phosphatase (ACP) Procedure No. 435. […] The alpha-naphthol immediately reacts with fast red TR salt to produce a yellow chromophore with an absorbance maximum at 405 nm. The rate of increase in absorbance at 405 nm is directly proportional to ACP activity in the sample. ACP activity was determined in the presence and absence of L-tartrate, the difference being attributed to prostatic acid phosphatase activity. […]

[3] = test system: bone alkaline phosphatase (BAP); assay: Bone Alkaline Phosphatase levels in treated subjects (Alkphase-B assay); format: in vivo, human; settings: men with hormone refractory prostate cancer; 10 mg vs placebo; AUC, Figure 5
Procedure: as §1
(§3) Markers of osteoblastic activity were assessed using urine samples. Bone markers include bone alkaline phosphatase (BAP), deoxypridinoline, and N-telopeptide of Type I collagen. Blood samples were collected prior to dosing on Day 1, Day 42, Day 84, Day 168, and every 28 days after Day 168, with a final collection on the last day of the study.
Bone Alkaline Phosphatase levels were determined using the bone-specific Alkphase-B® assay published by Metra Biosystems (Mountain View, CA).

[4] = Visual Analog Scale (VAS) pain assessment in treated subjects; format: in vivo, human; settings: men with symptomatic hormone refractory prostate cancer; 2.5 mg or 10 mg vs placebo; independent of the effects of morphine; AUC, Figure 3
Procedure: as §1, with “provided. […]” for “provided.”
During the course of the study, pain asessments were done daily, at bedtime, by the subject. […] The log also contained a table on which was recorded all daily pain medication consumed by the patient. […] Clinical personnel who received the logs measured the score by measuring the distance (in mm) from the "no pain" end mark to the point where the subject's line crossed the VAS line. […]
The weekly VAS scores were calculated excluding the lowest and highest score for each week and averaging the remaining five scores. […]

[5] = test system: carboxyterminal cross-linked telopeptide of type I collagen (ICTP); assay: Crosslinked N-telopeptide levels in treated subjects (DiaSorin ICTP radioimmunoassay); format: in vivo; settings: men with hormone refractory prostate cancer; human serum; 10 mg vs placebo; AUC, Figure 4
Procedure: as §1, §3
Cross-linked N-telopeptide levels were determined using the DiaSorin (Stillwater, MN) assay for the quantitative determination of carboxyterminal cross-linked telopeptide of type I collagen (ICTP) in human serum by equilibrium radioimmunoassay (RIA). […] The bound tracer in the pellet was counted with a gamma counter. […]

SMILES: CCCCN(CCCC)C(=O)CN1C[C@H](c2ccc3c(c2)OCO3)[C@@H](C(=O)O)[C@@H]1c1ccc(OC)cc1 [ABT-627]
- proportion of total skeketal involvement [1]: decrease in the proportion of total skeketal involvement
- average change in baseline for Interleukin-6 (Interleukin-6): lower
- rate of increase of PSA in the serum samples [2]: decreases
- average change from baseline for Chromagranin-A (Chromagranin-A): higher
- average change from baseline for acid phosphatase (Acid Phosphatase (ACP)): decreased
- rate of increase for acid phosphatase (Acid Phosphatase (ACP)): decreased
- BAP levels [3]: decreased
- VAS scores (pain) [4]: decrease in pain
- Crosslinked N-telopeptide levels [5]: decreased
